Assay results published in patent publication US20100204286A1, “METHOD FOR REDUCING GASTROINTESTINAL ADVERSE EFFECTS OF CYTOTOXIC AGENTS” (priority 2009, published 2010).

Assays:
[1] = test system: activator protein-1 (AP-1); assay: Basal in vivo reporter luciferase expression in AP-1::Luc mice; conditions: data not shown
[2] = test system: LPS-induced NF-κB-dependent transcription; assay: LPS-induced NF-κB-dependent transcription in extracted organs of NF-κB::Luc mice (luciferase assay); format: in vivo; conditions: 30 mg/kg; 0.5 mg/kg LPS; versus LPS alone
Text: For luciferase assays, organs were extracted and snap frozen in liquid nitrogen. All tissue samples were placed in lysis buffer with inhibitors (Passive Lysis Buffer (Promega) and Complete Mini Protease Inhibitor Cocktail (Roche, Indianapolis, Ind.)), and were homogenized using a tissue homogenizer (Handishear, Hand-held homogenizer, VirTis, Gardiner, N.Y.). Tissue homogenates were centrifuged and clarified lysates were used for luminometer assays and western blots. For the luminometer assays, Luciferase Assay Substrate (Luciferase Assay System, Promega) was prepared as indicated by the manufacturer and placed in disposable cuvettes. […] Background luminescence readings were obtained and the background readings were subtracted from the luminescent data. Protein concentrations were determined using the BCA Protein Assay Kit (Pierce, Rockford, Ill.) following the manufacturer's protocols and analyzed using a VERSAmax tunable microplate reader and associated Softmax Pro version 3.1.2 software (Molecular Devices, Sunnyvale Calif.). The luminescence for each of the protein lysates was calculated as arbitrary units of light per microgram of protein. […]
ORE1001 was further tested for in vivo anti-inflammatory activity by examining its effects on bacterial LPS-induced NF-κB-dependent transcription, in NF-κB::Luc mice. […] Luciferase signal was quantitated from several regions of interest. […]

[3] = test system: NF-κB-dependent transcription; assay: TNFα-induced activation of NF-κB in recombinant HeLa reporter cells (luciferase); format: cell-based
Text: To test the ACE2 inhibitor ORE1001 for anti-inflammatory activity relevant to IBD, effects of the compound on activation of NF-κB-dependent transcription by TNFα were examined in recombinant reporter cells containing a construct with a luciferase reporter gene under control of NF-κB-dependent regulatory sequences, thereby allowing detection of NF-κB-dependent transcription by measuring reporter enzyme using a conventional luciferase activity assay based on detection of generated light.
In particular, HeLa cells (American Type Culture Collection) were grown in Dulbecco's modified Eagles medium (DMEM) supplemented with 10% fetal calf serum and transiently transfected with an NF-κB—luc construct (Stratagene, Inc.), as follows (with all incubation steps at 37 C unless otherwise indicated). Cells were seeded and grown to about 70% confluency in a 10 cm cell culture dish. Plasmid DNA (10 μg) was added to 1 ml serum free DMEM media in a tube. Fugene 6 transfection reagent (30 μl) (Roche) was then pipetted slowly into the tube and the contents were gently mixed by inversion. The mixture was incubated at room temperature for 15 minutes and then added dropwise to cells in one 10 cm dish. Following incubation for 24 hours, cells were detached from the plate with Trypsin-EDTA (Gibco-BRL), transferred to wells in a clear-bottom white 96-well test plate (Fisher) with 100 μl per well serum free DMEM, at a density of 3×10^4 cells per well, and allowed to attach overnight. Compound (ORE1001) was then added to wells at a concentration of approximately 0, 0.008, 0.04, 0.2, 1.0 or 5.0 μM, followed immediately by addition of TNFα (R&D) to a final concentration of 20 ng/ml. After incubation for 6 hours, 100 μl of Bright-Glo Luciferase buffer (Promega, Cat#E2610) was added, and the plate was incubated at room temperature, with mild shaking, for 10 min. Bioluminescence was then measured using a Veritas luminometer (Turner BioSystems). Each plotted data point represents the average bioluminescence of 4 independent wells.

[4] = test system: LPS-induced NF-κB signaling; assay: In vivo LPS-induced NF-κB-dependent transcription in NF-κB::Luc mice (abdominal imaging)
Text: (§1) More particularly, transgenic NF-κB::Luc mice were generated using three NF-κB response elements from the Igic light chain promoter fused to a firefly luciferase gene as described by Carlsen et al. (2002) J. Immunol. 168:1441-1446. Pronuclear microinjection of purified construct DNA was used to generate transgenic founders in the C57BL/6 XCBA/J background. Founders were subsequently back crossed to the C57BL/6 albino background. All experimental protocols were approved by the Institutional Animal Care and Use Committee and conform to the ILAR guide for the care and used of laboratory animals. […] Signal data were also quantitated and archived using the Living Image® software. Photons of light were quantitated using an oval region of interest (ROI) of varying sizes depending on the procedure, as described further below.
ORE1001 was further tested for in vivo anti-inflammatory activity by examining its effects on bacterial LPS-induced NF-κB-dependent transcription, in NF-κB::Luc mice. […] Mice were subjected to quantitative abdominal imaging at 2, 4 and 6 h following LPS administration, as described above. […] Luciferase signal was quantitated from several regions of interest. […]
As shown by the quantitative imaging data in FIG. 4, LPS induced a strong NF-κB-dependent luciferase signal in control mice, indicating a strong NF-κB signaling response, as expected. […]

[5] = test system: NF-κB-dependent transcription; assay: In vivo basal NF-κB-dependent transcription in NF-κB::Luc reporter mice (abdominal imaging); conditions: 4 hours
Text: ORE1001 was further tested for in vivo anti-inflammatory activity by examining its effects on basal levels of NF-κB-dependent transcription in mice engineered in the germline with a construct containing an NF-κB enhancer linked to a luciferase gene (i.e., NF-κB::Luc mice), such that this NF-κB reporter construct is present in all cells of the mice.
as §1, with “background.” for “background. All experimental protocols were approved by the Institutional Animal Care and Use Committee and conform to the ILAR guide for the care and used of laboratory animals.”
To test for in vivo effects of ORE1001 on basal levels of NF-κB-dependent transcription, male NF-κB::Luc mice were subjected to quantitative in vivo imaging of the abdominal area (using a fixed ROI of 2.76×3.7 cm) as described above, immediately before, and at 2, […]

[6] = test system: radiation-induced proctitis; assay: Rat model of radiation-induced proctitis (endoscopy, histopathology, body weight); format: in vivo; conditions: for proctitis severity (endoscopy, day 8): 17.5 Gy on day 0
Text: A rat model was used to determine whether ORE1001 can reduce severity of radiation-induced proctitis, as assessed by endoscopy, and can reduce histopathological indicators of radiation-induced proctitis. This is a validated model, as described for example in the publications cited individually below and incorporated herein by reference.
Female Lewis rats of body weight 175-200 g and 6-8 weeks old were randomized into 3 groups of 8 animals each, for induction of proctitis by radiation as described below. In addition, a group of 8 female Lewis rats of body weight 175-200 g and 6-8 weeks old were followed as untreated, non-irradiated controls. Animals were acclimated prior to study commencement. The study was performed in animal rooms provided with filtered air at a temperature of 70±5° F. (˜21±3° C.) and relative humidity of 50±20%, and a 12 h/12 h light/dark cycle. Animals were fed with LabDiet 5053 sterile irradiated rat chow. Water was provided ad libitum.
Proctitis was induced by a single 17.5 Gy dose of radiation at a rate of 1 Gy/minute administered to each animal on day 0. Lead shielding was used to cover the animal except for a 3×4 cm area of the lower pelvis, permitting exposure to radiation of an approximately 2 cm length of rectum and distal descending colon. Radiation was generated with a Kimtron 160 kV, 15 mA source at a focal distance of 30 cm, hardened with a 0.35 mm Cu filtration system. Prior to irradiation, animals were anesthetized with an intraperitoneal injection of ketamine (100 mg/kg) and xylazine (5 mg/kg). Animals were inclined in a slightly head-down position, to allow gravity to move non-target abdominal organs out of the radiation path as much as possible.
ORE1001 in a vehicle of 0.5% carboxymethylcellulose (CMC) in sterile water was administered per os at a daily dose of 600 mg/kg in 5 ml/kg vehicle from day 0 to day 7 (first group) or from day −2 to day 7 (second group). A third group received vehicle only, from day −2 to day 7.
All animals were weighed daily and examined for diarrhea and fecal blood. On day 8, all animals were examined by rodent endoscope under isoflurane anesthesia and were scored for severity of proctitis. Following endoscopy, animals were euthanized by CO2 inhalation and the descending colon and rectum to the anus were taken as a single tissue sample for histological examination. Histopathology was recorded by scoring inflammation, edema and necrosis.

[7] = 600 mg/kg per os daily, day 0 to day 7
[8] = 600 mg/kg per os daily, day −2 to day 7

Q: Which results are given for `CC(C)C[C@H](N[C@@H](Cc1cncn1Cc1cc(Cl)cc(Cl)c1)C(=O)O)C(=O)O` [ORE1001, (S,S)-2-[1-carboxy-2-[3-(3,5-dichlorobenzyl)-3H-imidazol-4-yl]-ethylamino]-4-methylpentanoic acid]?
A: basal in vivo levels of reporter luciferase expression [1]: no significant effect; LPS-induced NF-κB signaling in pancreas and uterus, or any other organ analyzed [2]: no statistically significant decrease; reduction of LPS-induced NF-κB-dependent transcription in stomachs [2]: about 37 fold; inhibition of TNFα-induced activation of NF-κB-dependent transcription ([3]; 8 nM, TNFα 20 ng/ml, 6 hours, HeLa): over 80%; maximal inhibition of TNFα-induced activation of NF-κB-dependent transcription ([3]; 0.2 μM, TNFα 20 ng/ml, 6 hours, HeLa): over 95%; TNFα-induced activation of NF-κB-dependent transcription ([3]; all tested concentrations (0.008-5.0 μM)): significantly inhibited; LPS-induced NF-κB signaling response, abdominal region ([4]; FIG. 4, 30, 100, 300 mg/kg subcutaneous 1 hour before LPS i.v.): significantly reduced; LPS-induced NF-κB signaling, abdominal region ([4]; FIG. 5, lower dose range 3-100 mg/kg, at 30 and 100 mg/kg): significantly reduced; inhibition of basal in vivo levels of NF-κB-dependent transcription in abdominal ROI ([5]; 300 mg/kg subcutaneous, p<0.01): over 40%; inhibition of basal in vivo levels of NF-κB-dependent transcription in abdominal ROI ([5]; both lower doses, subcutaneous): lesser but still significant extents; edema score (histopathology) [6, 7]: statistically non-significant trend for reduction; necrosis score (histopathology) [6, 7]: statistically non-significant trend for reduction; sum score (histopathology) [6, 7]: statistically non-significant trend for reduction; proctitis severity (endoscopy, day 8) [6, 7]: minor but statistically non-significant reduction; inflammation score (histopathology) [6, 8]: statistically significant reductions; necrosis score (histopathology) [6, 8]: statistically significant reductions; sum of inflammation, edema and necrosis scores [6, 8]: statistically significant reductions; proctitis severity (endoscopy, day 8) [6, 8]: substantial reduction; body weight change ([6]; among the treatments): No major differences
